Source: patent publication US20250381168A1, “VLA4 INHIBITORS AND USES THEREOF” (Washington University, priority 2022, published 2025)
“Also recorded” adds a separate entry of the source. Read-outs that look alike come from different tables or passages of the source.

Tests used:
[1] = tested on: hematopoietic stem/progenitor cells (HSPCs); experiment: HSPC mobilization into peripheral blood, colony forming unit (CFU) assay; conditions: mice
[2] = target: VLA-4 (a4b1) (Homo sapiens (Human), UniProt P05556+P13612); experiment: sVCAM flow cytometry cell-based assay (inhibition of soluble VCAM-1 binding to G2 ALL cells);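 also: compounds at 0.1 to 1000 nM preincubated 30 min with G2 ALL cells, then VCAM/Fc added for 30 min, bound VCAM-1 detected by PE secondary antibody, percent binding cells by flow cytometry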
Chain of VLA-4 (a4b1) (P13612 34-1032): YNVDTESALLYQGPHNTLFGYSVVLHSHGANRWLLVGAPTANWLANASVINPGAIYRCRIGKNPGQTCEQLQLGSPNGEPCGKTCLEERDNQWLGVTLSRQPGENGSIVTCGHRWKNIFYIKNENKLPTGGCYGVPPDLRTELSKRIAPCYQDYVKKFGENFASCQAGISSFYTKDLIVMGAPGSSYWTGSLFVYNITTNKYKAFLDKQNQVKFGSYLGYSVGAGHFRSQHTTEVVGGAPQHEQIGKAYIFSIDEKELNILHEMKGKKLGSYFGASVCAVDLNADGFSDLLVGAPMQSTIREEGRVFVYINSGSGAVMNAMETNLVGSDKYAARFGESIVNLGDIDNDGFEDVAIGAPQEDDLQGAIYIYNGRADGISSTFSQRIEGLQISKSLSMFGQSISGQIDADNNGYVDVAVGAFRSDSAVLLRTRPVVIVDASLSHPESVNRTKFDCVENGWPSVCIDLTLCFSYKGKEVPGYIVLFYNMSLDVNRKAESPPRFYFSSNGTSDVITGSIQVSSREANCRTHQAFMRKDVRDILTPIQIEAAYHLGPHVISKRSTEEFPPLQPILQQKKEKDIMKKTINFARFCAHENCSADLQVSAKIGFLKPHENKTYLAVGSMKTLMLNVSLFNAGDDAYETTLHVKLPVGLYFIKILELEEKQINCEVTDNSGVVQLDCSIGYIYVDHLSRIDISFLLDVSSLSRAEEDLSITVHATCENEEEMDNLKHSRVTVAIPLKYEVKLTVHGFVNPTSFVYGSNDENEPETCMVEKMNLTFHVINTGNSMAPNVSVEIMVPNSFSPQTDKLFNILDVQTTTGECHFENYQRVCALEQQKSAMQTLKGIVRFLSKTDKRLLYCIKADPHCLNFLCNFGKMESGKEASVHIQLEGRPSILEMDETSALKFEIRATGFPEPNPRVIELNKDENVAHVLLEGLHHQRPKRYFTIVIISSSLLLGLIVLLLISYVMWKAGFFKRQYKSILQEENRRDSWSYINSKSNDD
Chain of VLA-4 (a4b1) (P05556 21-798): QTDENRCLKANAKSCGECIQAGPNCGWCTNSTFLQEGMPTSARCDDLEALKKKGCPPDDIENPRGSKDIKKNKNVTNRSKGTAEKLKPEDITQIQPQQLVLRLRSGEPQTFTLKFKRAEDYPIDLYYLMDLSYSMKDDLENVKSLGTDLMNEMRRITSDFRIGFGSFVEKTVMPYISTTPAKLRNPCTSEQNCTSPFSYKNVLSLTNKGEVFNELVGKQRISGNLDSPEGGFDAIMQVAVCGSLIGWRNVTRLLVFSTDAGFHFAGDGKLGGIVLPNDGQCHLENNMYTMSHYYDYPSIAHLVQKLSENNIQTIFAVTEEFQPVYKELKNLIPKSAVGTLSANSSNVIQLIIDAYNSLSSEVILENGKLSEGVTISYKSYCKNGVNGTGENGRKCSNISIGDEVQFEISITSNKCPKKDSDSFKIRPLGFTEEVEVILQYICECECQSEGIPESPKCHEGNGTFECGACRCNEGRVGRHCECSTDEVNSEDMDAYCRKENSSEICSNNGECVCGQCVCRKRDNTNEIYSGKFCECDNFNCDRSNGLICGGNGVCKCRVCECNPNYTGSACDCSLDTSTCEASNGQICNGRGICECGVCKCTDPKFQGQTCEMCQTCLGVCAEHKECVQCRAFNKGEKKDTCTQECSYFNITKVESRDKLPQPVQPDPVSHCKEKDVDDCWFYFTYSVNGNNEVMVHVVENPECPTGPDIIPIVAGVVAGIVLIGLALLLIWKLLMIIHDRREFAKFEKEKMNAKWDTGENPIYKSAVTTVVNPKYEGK
Experimental: VLA-4 (a4b1) inhibitor compounds were tested for their ability to inhibit the binding of soluble VCAM-1 to human G2 acute lymphoblastic leukemia (ALL) cells. Briefly, G2 ALL cells are pre-incubated with increasing concentrations (0.1 to 1000 nM) of compounds for 30 minutes. Soluble VCAM/Fc chimera protein (R & D systems) is then added to the mixture and the cells incubated for an additional 30 minutes. Afterwards, cells are washed and VCAM-1 is detected using a PE-conjugated secondary polyclonal antibody. In each experiment, an aliquot of cells are stained with isotype control antibodies to serve as a negative control. The percentage of VCAM-1 binding cells was then determined by flow cytometry.

[3] = single s.c. injection, peripheral blood, 0.25 hr post dose (TABLE 6)
[4] = single s.c. injection, peripheral blood, 2 hr post dose (TABLE 6)
[5] = single s.c. injection, peripheral blood, 4 hr post dose (TABLE 6)
[6] = as listed in TABLE 6, read-out: sVCAM IC50
[7] = inhibition of sVCAM-1 binding to human G2 ALL cells (TABLE 3), read-out: SVCAM-1, IC50

Row | IC50 [2, 6] | IC50 [2, 7] | SMILES | No. CFU (×10^3)/mL ± SD, 0.25 hr [1, 3] | No. CFU (×10^3)/mL ± SD, 2 hr [1, 4] | No. CFU (×10^3)/mL ± SD, 4 hr [1, 5] | HSPC mobilization, result in words ([1]; single dose) | other results
1 | 3.59 nM | 3.59 nM | COc1cccc(OC)c1-c1ccc(C[C@H](NC(=O)[C@]2(C)CCCN2S(=O)(=O)c2cc(Cl)cc(Cl)c2)C(=O)O)cc1 [Example C5] | 2.78 ± 0.48 (×10^3)/mL | 1.38 ± 0.53 (×10^3)/mL | 0.31 ± 0.09 (×10^3)/mL | – | –
2 | 0.445 nM | 0.445 nM | CCOCc1cc(OC)c(-c2ccc(C[C@H](NC(=O)[C@@H]3CCCN3S(=O)(=O)c3cc(Cl)cc(Cl)c3)C(=O)O)cc2)c(OC)c1 [Example C6] | 2.58 ± 0.65 (×10^3)/mL | 2.12 ± 0.70 (×10^3)/mL | 0.46 ± 0.20 (×10^3)/mL | – | –
3 | 0.194 nM | 0.194 nM | COCCOCCOCCOCc1cc(OC)c(-c2ccc(C[C@H](NC(=O)[C@@H]3CCCN3S(=O)(=O)c3cc(Cl)cc(Cl)c3)C(=O)O)cc2)c(OC)c1 [Example C7] | 2.57 ± 0.62 (×10^3)/mL | 2.52 ± 0.37 (×10^3)/mL | 0.50 ± 0.18 (×10^3)/mL | returning to baseline by 4 hours and clearly at baseline by 6 hours | No. CFU (×10^3)/mL ± SD, 2 hr ([1]; single dose, peripheral blood, 2 hr post dose (TABLE 9)): 2.65 ± 1.39 (×10^3)/mL; No. CFU (×10^3)/mL ± SD, 4 hr ([1]; single dose, peripheral blood, 4 hr post dose (TABLE 9)): 0.44 ± 0.17 (×10^3)/mL; No. CFU (×10^3)/mL ± SD, 6 hr ([1]; single dose, peripheral blood, 6 hr post dose (TABLE 9)): 0.11 ± 0.08 (×10^3)/mL; IC50 ([2]; as listed in TABLE 9, read-out: sVCAM IC50): 0.194 nM
4 | 0.199 nM | 0.199 nM | COc1cc(CO)cc(OC)c1-c1ccc(C[C@H](NC(=O)[C@@H]2CCCN2S(=O)(=O)c2cc(Cl)cc(Cl)c2)C(=O)O)cc1 [Example C8] | 2.74 ± 0.69 (×10^3)/mL | 2.10 ± 0.85 (×10^3)/mL | 0.42 ± 0.15 (×10^3)/mL | have returned to baseline | No. CFU (×10^3)/mL ± SD, 0.5 hr ([1]; single dose, peripheral blood, 0.5 hr post dose (TABLE 7)): 0.85 ± 0.30 (×10^3)/mL; No. CFU (×10^3)/mL ± SD, 2 hr ([1]; single dose, peripheral blood, 2 hr post dose (TABLE 7)): 0.87 ± 0.30 (×10^3)/mL; No. CFU (×10^3)/mL ± SD, 4 hr ([1]; single dose, peripheral blood, 4 hr post dose (TABLE 7)): 0.27 ± 0.36 (×10^3)/mL; IC50 ([2]; as listed in TABLE 7, read-out: sVCAM IC50): 0.199 nM
5 | – | 0.579 nM | COCCOCCOCCOCCOCCOCCOCCOCCOCCOCCOCCOCCOCCOCCOCCOCCOCCOCCOCCOCCOCCOCCOCCOCCn1cc(COCc2cc(OC)c(-c3ccc(C[C@H](NC(=O)[C@@H]4CCCN4S(=O)(=O)c4cc(Cl)cc(Cl)c4)C(=O)O)cc3)c(OC)c2)nn1 [Example C9, (S)-3-(4′-(((1-(2,5,8,11,14,17,20,23,26,29,32,35,38,41,44,47,50,53,56,59,62,65,68,71-tetracosaoxatriheptacontan-73-yl)-1H-1,2,3-triazol-4-yl)methoxy)methyl)-2′,6′-dimethoxy-[1,1′-biphenyl]-4-yl)-2-((S)-1-((3,5-dichlorophenyl)sulfonyl)pyrrolidine-2-carboxamido)propanoic Acid] | – | – | – | returning to baseline by 4 hours; also recorded: inferior mobilization at 4 hours compared to Example 3 | No. CFU (×10^3)/mL ± SD, 0.25 hr ([1]; single dose, peripheral blood, 0.25 hr post dose (TABLE 8)): 3.72 ± 1.18 (×10^3)/mL; No. CFU (×10^3)/mL ± SD, 2 hr ([1]; single dose, peripheral blood, 2 hr post dose (TABLE 8)): 3.09 ± 1.06 (×10^3)/mL; No. CFU (×10^3)/mL ± SD, 4 hr ([1]; single dose, peripheral blood, 4 hr post dose (TABLE 8)): 0.57 ± 0.28 (×10^3)/mL; IC50 ([2]; as listed in TABLE 8, read-out: sVCAM IC50): 0.579 nM
6 | – | – | CCOCc1cc(OC)c(-c2ccc(C[C@H](NC(=O)c3c(F)cccc3F)C(=O)O)cc2)c(OC)c1 [Firategrast, firategrast] | – | – | – | – | No. CFU (×10^3)/mL ± SD, 1 hr ([1]; single dose, peripheral blood, 1 hr post dose (TABLE 20)): 0.34 ± 0.12 (×10^3)/mL; No. CFU (×10^3)/mL ± SD, 4 hr ([1]; single dose, peripheral blood, 4 hr post dose (TABLE 20)): 0.24 ± 0.14 (×10^3)/mL; No. CFU (×10^3)/mL ± SD, 8 hr ([1]; single dose, peripheral blood, 8 hr post dose (TABLE 20)): 0.24 ± 0.14 (×10^3)/mL
7 | – | – | c1cc(CN2CCCNCCNCCCNCC2)ccc1CN1CCCNCCNCCCNCC1 [Plerixafor, plerixafor] | – | – | – | – | No. CFU (x10^3)/mL ± SD, 4 hr ([1]; single dose alone or in combination with Plerixafor (5 mg/kg s.c.), peripheral blood, 4 hr (TABLE 15)): 1.25 ± 0.30 (x10^3)/mL; No. CFU (x10^3)/mL ± SD, 6 hr ([1]; single dose alone or in combination with Plerixafor (5 mg/kg s.c.), peripheral blood, 6 hr (TABLE 15)): 0.28 ± 0.12 (x10^3)/mL; No. CFU (x10^3)/mL ± SD, 24 hr ([1]; single dose alone or in combination with Plerixafor (5 mg/kg s.c.), peripheral blood, 24 hr (TABLE 15)): 0.22 ± 0.08 (x10^3)/mL
